Data reported in patent US7273867B2, “Phenyl derivatives” (Merck Patent GmbH, priority 2001, dated 2007).

Tests used:
factor Xa = factor Xa (Homo sapiens, UniProt P00742); assay: Inhibition of factor Xa; type: biochemical
Source text: The inhibition of factor Xa by the compounds according to the invention and the measurement of the anticoagulant and antithrombotic activity can be determined by conventional in-vitro or in-vivo methods. A suitable method is described, for example, by J. Hauptmann et al. in Thrombosis and Haemostasis 1990, 63, 220-223.
The inhibition of factor Xa can be measured, for example, by the method of T. Hara et al. in Thromb. Haemostas. 1994, 71, 314-319.

factor VIIa = biological target: T1, factor VIIa (Homo sapiens, UniProt P08709); assay: Inhibition of factor VIIa; type: biochemical
T1 sequence (P08709 213-466 limits assumed): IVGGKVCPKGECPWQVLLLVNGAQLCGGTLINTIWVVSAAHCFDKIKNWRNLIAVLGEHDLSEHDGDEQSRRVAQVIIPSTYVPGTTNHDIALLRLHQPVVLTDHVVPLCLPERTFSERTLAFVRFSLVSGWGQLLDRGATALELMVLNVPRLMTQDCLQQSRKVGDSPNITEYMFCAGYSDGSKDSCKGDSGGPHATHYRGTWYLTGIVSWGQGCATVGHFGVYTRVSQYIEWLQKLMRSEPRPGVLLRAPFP
T1 sequence (P08709 61-212 limits assumed): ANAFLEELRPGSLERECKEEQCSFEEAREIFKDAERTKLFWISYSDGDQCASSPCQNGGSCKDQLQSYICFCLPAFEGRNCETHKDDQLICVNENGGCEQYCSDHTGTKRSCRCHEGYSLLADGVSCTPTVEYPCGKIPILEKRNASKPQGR
Source text: Coagulation factor VIIa initiates the extrinsic part of the coagulation cascade after binding to tissue factor and contributes to the activation of factor X to give factor Xa. Inhibition of factor VIIa thus prevents the formation of factor Xa and thus subsequent thrombin formation. The inhibition of factor VIIa by the compounds according to the invention and the measurement of the anticoagulant and antithrombotic activity can be determined by conventional in-vitro or in-vivo methods. A conventional method for the measurement of the inhibition of factor VIIa is described, for example, by H. F. Ronning et al. in Thrombosis Research 1996, 84, 73-81.

Sequence of factor Xa (P00742 235-488 limits assumed): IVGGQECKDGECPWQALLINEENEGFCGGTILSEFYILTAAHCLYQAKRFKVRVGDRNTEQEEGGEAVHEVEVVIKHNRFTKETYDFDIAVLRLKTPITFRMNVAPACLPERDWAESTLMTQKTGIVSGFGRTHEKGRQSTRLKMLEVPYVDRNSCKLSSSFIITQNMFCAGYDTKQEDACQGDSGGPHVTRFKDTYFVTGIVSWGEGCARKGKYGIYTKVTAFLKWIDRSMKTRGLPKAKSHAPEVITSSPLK
Sequence of factor Xa (P00742 41-179 limits assumed): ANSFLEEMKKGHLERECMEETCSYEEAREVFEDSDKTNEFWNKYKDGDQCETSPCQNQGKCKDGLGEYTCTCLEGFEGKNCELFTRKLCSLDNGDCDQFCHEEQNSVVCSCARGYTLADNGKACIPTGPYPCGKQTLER

N=C(N)c1cccc(OC(C(=O)Nc2ccc(N3CCOCC3)cc2)c2ccccc2)c1 (stereo not shown) [2-(3-amidinophenoxy)-N-(4-morpholin-4-ylphenyl)-2-phenylacetamide]
IC50 (factor Xa): 90 nM
IC50 (factor VIIa): 60 nM

CCCC(Oc1cccc(C(=N)N)c1)C(=O)Nc1ccc(N2CCOCC2)cc1 (stereo not shown) [2-(3-amidinophenoxy)-N-(4-morpholin-4-ylphenyl)valeramide]
IC50 (factor Xa): 300 nM
IC50 (factor VIIa): 490 nM

CCCC(Oc1cccc(C(=N)N)c1)C(=O)Nc1ccc(N2CCCCC2=O)cc1 (stereo not shown) [2-(3-amidinophenoxy)-N-[4-(2-oxopiperidin-1-yl)phenyl]valeramide]
IC50 (factor Xa): 70 nM
IC50 (factor VIIa): 33 nM

N=C(N)c1cccc(OC(C(=O)Nc2ccc(N3CCCC3=O)cc2)c2ccccc2)c1 (stereo not shown) [2-(3-amidinophenoxy)-N-[4-(2-oxopyrrolidin-1-yl)phenyl]-2-phenylacetamide]
IC50 (factor Xa): 65 nM
IC50 (factor VIIa): 39 nM

CCCC(Oc1cccc(C(=N)N)c1)C(=O)Nc1ccc(N2CCCC2=O)cc1 (stereo not shown) [2-(3-amidinophenoxy)-N-[4-(2-oxopyrrolidin-1-yl)phenyl]valeramide]
IC50 (factor Xa): 130 nM
IC50 (factor VIIa): 83 nM

CC(C)CC(Nc1cccc(C(=N)N)c1)C(=O)Nc1ccc(N(C)C)cc1 (stereo not shown) [2-(3-amidinophenylamino)-N-(4-dimethylaminophenyl)-4-methylvaleramide]
IC50 (factor Xa): 160 nM
IC50 (factor VIIa): 21 nM

N=C(N)c1cccc(NC(C(=O)Nc2ccc(N3CCOCC3)cc2)c2ccccc2)c1 (stereo not shown) [2-(3-amidinophenylamino)-N-(4-morpholin-4-ylphenyl)-2-phenylacetamide]
IC50 (factor Xa): 34 nM
IC50 (factor VIIa): 22 nM

N=C(N)c1cccc(OC(C(=O)Nc2ccc(N3CCCCC3=O)cc2)c2ccccc2)c1 (stereo not shown) [EMD 388547, 2-(3-amidinophenoxy)-N-[4-(2-oxopiperidin-1-yl)phenyl]-2-phenylacetamide]
IC50 (factor Xa): 32 nM
IC50 (factor VIIa): 14 nM
